Measurements reported in patent US20240132431A1, “METHOD FOR ALKYLATING ACIDIC FUNCTIONAL GROUP” (Chugai Seiyaku Kabushiki Kaisha, priority 2021, published 2024).

Molecular target: T1, Bcl-2 protein (Recombinant Human Bcl-2 Protein) (Homo sapiens, UniProt P10415)
T1 construct: purchased Novus NBP2-34889
Experiment: Binding evaluation of mixture library compounds to Bcl-2 using AS-MS (affinity selection mass spectrometry)
Details: for ASMS ratio (%) n = 1 / ASMS ratio (%) n = 2: ASMS Ratio(%)=(A−C)/B×100; for ASMS ratio (%) n = 1: replicate n = 1; for ASMS ratio (%) n = 2: replicate n = 2
Procedure, shortened: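 Readout is ASMS Ratio (%), (A−C)/B×100, from reversed-phase LC/MS of SEC-passed extracts, with protein-free unfiltered standard (B) and protein-free SEC blank (C). Recombinant human Bcl-2 at 20 μM final met ~1200 pooled compounds at […] each for 1 h, 23° C., dark, in Tris-HCl pH 7.4 buffer.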

[1] = AS-MS on the mixture of 1200 library compounds
[2] = AS-MS, mixture of 1200 compounds, Bcl-2

T1 sequence (P10415 whole entry): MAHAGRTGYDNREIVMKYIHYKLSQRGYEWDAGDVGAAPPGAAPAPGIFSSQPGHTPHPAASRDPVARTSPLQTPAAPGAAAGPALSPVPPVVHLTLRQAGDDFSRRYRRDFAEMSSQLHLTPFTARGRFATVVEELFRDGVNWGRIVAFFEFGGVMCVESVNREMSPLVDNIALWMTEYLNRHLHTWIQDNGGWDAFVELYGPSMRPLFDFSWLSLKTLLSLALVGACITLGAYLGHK

Row | SMILES | ASMS ratio (%) n = 1 [1] | ASMS ratio (%) n = 2 [1] | ASMS ratio (%) (n = 1) | ASMS ratio (%) (n = 2) | further results
1 | CCOc1cncc(-c2ccccc2CN2CCN(c3ccc(C(=O)Nc4ccc(OC)cc4)cc3)CC2)c1 [B1O046-01, 4-[4-[[2-(5-Ethoxypyridin-3-yl)phenyl]methyl]piperazin-1-yl]-N-(4-methoxyphenyl)benzamide] | 0.6% | 1.3% | – | – | –
2 | CCOc1cncc(C#Cc2ccccc2C(=O)N2CCN(c3ccc(C(=O)Nc4ccc(OC)cc4)nn3)CC2)c1 [B1O008-01, 6-[4-[2-[2-(5-Ethoxypyridin-3-yl)ethynyl]benzoyl]piperazin-1-yl]-N-(4-methoxyphenyl)pyridazine-3-carboxamide] | 1.1% | 1.3% | – | – | –
3 | CCOc1cccc(-c2ccc(CN3CCN(c4ccc(C(=O)NS(=O)(=O)C(C)(C)C)cc4)CC3)cc2F)c1 [B2L051-01, N-tert-Butylsulfonyl-4-[4-[[4-(3-ethoxyphenyl)-3-fluorophenyl]methyl]piperazin-1-yl]benzamide] | – | – | 0.0% | 0.0% | –
4 | CCOc1cccc(-c2ccccc2CN2CCN(c3ccc(C(=O)N(C)CC45CC6CC(CC(C6)C4)C5)nn3)CC2)c1 [B3A071-01, N-(1-Adamantylmethyl)-6-[4-[[2-(3-ethoxyphenyl)phenyl]methyl]piperazin-1-yl]-N-methylpyridazine-3-carboxamide] | 3.2% | −4.7% | – | – | –
5 | CCOc1cccc(-c2cc(CN3CCN(c4ccc(C(=O)NS(C)(=O)=O)cc4)CC3)cc(OC(C)C)c2)c1 [B2I057-01, 4-[4-[[3-(3-Ethoxyphenyl)-5-propan-2-yloxyphenyl]methyl]piperazin-1-yl]-N-methylsulfonylbenzamide] | – | – | 0.0% | 0.0% | –
6 | CCOc1cncc(-c2cc(CN3CCN(c4ccc(C(=O)NS(=O)(=O)c5ccc(NCCSc6ccccc6)c(C(F)(F)F)c5)nn4)CC3)cc(C(F)(F)F)c2)c1 [B2R088-01, 6-[4-[[3-(5-Ethoxypyridin-3-yl)-5-(trifluoromethyl)phenyl]methyl]piperazin-1-yl]-N-[4-(2-phenylsulfanylethylamino)-3-(trifluoromethyl)phenyl]sulfonylpyridazine-3-carboxamide] | – | – | 35.3% | 13.1% | –
7 | CCOc1cncc(-c2ccc(CN3CCN(c4ccc(C(=O)NS(=O)(=O)c5ccc(NCCSc6ccccc6)c(C(F)(F)F)c5)nn4)CC3)cc2F)c1 [B2R078-01, 6-[4-[[4-(5-Ethoxypyridin-3-yl)-3-fluorophenyl]methyl]piperazin-1-yl]-N-[4-(2-phenylsulfanylethylamino)-3-(trifluoromethyl)phenyl]sulfonylpyridazine-3-carboxamide] | – | – | 15.8% | 11.7% | –
8 | CCOc1cccc(-c2ccc(CN3CCN(c4ccc(C(=O)N(CC)CC)cc4)CC3)c(OC)c2)c1 [B4J053-01, 4-[4-[[4-(3-Ethoxyphenyl)-2-methoxyphenyl]methyl]piperazin-1-yl]-N,N-diethylbenzamide] | −0.1% | −6.0% | – | – | –
9 | CCOc1cncc(C#Cc2ccccc2C(=O)N2CCN(c3ccc(C(=O)NCC(F)(F)F)nn3)CC2)c1 [B1K008-01, 6-[4-[2-[2-(5-Ethoxypyridin-3-yl)ethynyl]benzoyl]piperazin-1-yl]-N-(2,2,2-trifluoroethyl)pyridazine-3-carboxamide] | – | – | – | – | ASMS ratio (%) n = 1 [2]: 0.0%; ASMS ratio (%) n = 2 [2]: 0.0%
10 | CCOc1cncc(-c2csc(CN3CCN(c4ccc(C(=O)N(C)CC56CC7CC(CC(C7)C5)C6)cc4)CC3)c2)c1 [B3A068-01, N-(1-Adamantylmethyl)-4-[4-[[4-(5-ethoxypyridin-3-yl)thiophen-2-yl]methyl]piperazin-1-yl]-N-methylbenzamide] | 1.4% | −3.6% | – | – | –
11 | CCOc1cncc(C#Cc2ccccc2CN2CCN(c3ccc(C(=O)N(CC)CC)nn3)CC2)c1 [B4J096-01] | – | – | – | – | ASMS ratio (%) n = 2 (AS-MS, mixture library, Bcl-2): 0.0%
12 | CCOc1cncc(C#Cc2cncc(C(=O)N3CCN(c4ccc(C(=O)NS(=O)(=O)C(C)(C)C)nn4)CC3)c2)c1 [B2L010-01, N-tert-Butylsulfonyl-6-[4-[5-[2-(5-ethoxypyridin-3-yl)ethynyl]pyridine-3-carbonyl]piperazin-1-yl]pyridazine-3-carboxamide] | – | – | 0.0% | 0.0% | –
13 | CCOc1cccc(-c2ccccc2CCC(=O)N2CCN(c3ccc(C(=O)NS(=O)(=O)CCC(F)(F)F)nn3)CC2)c1 [B2N011-01, 6-[4-[3-[2-(3-Ethoxyphenyl)phenyl]propanoyl]piperazin-1-yl]-N-(3,3,3-trifluoropropylsulfonyl)pyridazine-3-carboxamide] | – | – | 0.0% | 0.0% | –
14 | CCOc1cncc(-c2ccc(C(=O)N3CCN(c4ccc(C(=O)Nc5ccc(OC)cc5)cc4)CC3)cc2C)c1 [B1O026-01, 4-[4-[4-(5-Ethoxypyridin-3-yl)-3-methylbenzoyl]piperazin-1-yl]-N-(4-methoxyphenyl)benzamide] | 1.7% | −1.5% | – | – | –
15 | CCOc1cccc(-c2ccc(C(=O)N3CCN(c4ccc(C(=O)NCC56CC7CC(CC(C7)C5)C6)cc4)CC3)cc2F)c1 [B1A027-01, N-(1-Adamantylmethyl)-4-[4-[4-(3-ethoxyphenyl)-3-fluorobenzoyl]piperazin-1-yl]benzamide] | – | – | – | – | ASMS ratio (%) n = 1 [2]: 6.7%; ASMS ratio (%) n = 2 [2]: −7.8%
16 | CCOc1cccc(-c2cc(OC)c(CN3CCN(c4ccc(C(=O)NCC56CC7CC(CC(C7)C5)C6)nn4)CC3)c(OC)c2)c1 [B1A085-01, N-(1-Adamantylmethyl)-6-[4-[[4-(3-ethoxyphenyl)-2,6-dimethoxyphenyl]methyl]piperazin-1-yl]pyridazine-3-carboxamide] | – | – | – | – | ASMS ratio (%) n = 1 [2]: 10.6%; ASMS ratio (%) n = 2 [2]: 10.8%
17 | CCOc1cccc(C#Cc2ccccc2C(=O)N2CCN(c3ccc(C(=O)NS(=O)(=O)CCC(F)(F)F)nn3)CC2)c1 [B2N007-01, 6-[4-[2-[2-(3-Ethoxyphenyl)ethynyl]benzoyl]piperazin-1-yl]-N-(3,3,3-trifluoropropylsulfonyl)pyridazine-3-carboxamide] | – | – | 0.0% | 0.0% | –
18 | CCOc1cncc(-c2cc(C(=O)N3CCN(c4ccc(C(=O)N(C)CC56CC7CC(CC(C7)C5)C6)cc4)CC3)cc(C(F)(F)F)c2)c1 [B3A040-01, N-(1-Adamantylmethyl)-4-[4-[3-(5-ethoxypyridin-3-yl)-5-(trifluoromethyl)benzoyl]piperazin-1-yl]-N-methylbenzamide] | 3.5% | −6.7% | – | – | –
19 | CCOc1cncc(-c2csc(CN3CCN(c4ccc(C(=O)NCC56CC7CC(CC(C7)C5)C6)cc4)CC3)c2)c1 [B1A068-01, N-(1-Adamantylmethyl)-4-[4-[[4-(5-ethoxypyridin-3-yl)thiophen-2-yl]methyl]piperazin-1-yl]benzamide] | – | – | – | – | ASMS ratio (%) n = 1 [2]: 12.2%; ASMS ratio (%) n = 2 [2]: 3.3%
